One experiment concerns rats. Put plainly: 1-choice serial reaction time task, impulsive action (premature responses). The settings on record: 1-choice serial reaction time task, single agent. In kind it is in vivo, rat. The source says: FIG. 23 illustrates additional behavioral effects of TAT-3L4F.
The test system of the next experiment is 5-HT2CR. Put plainly: Cai++ release in 5-HT2CR-CHO cells. In kind it is cell-based. The source says: (§1) The 5-HT2CR:PTEN complex occurs in rat brain regions implicated in palatable food reward. […] These cells have been employed for 5-HT2CR signaling studies. […] Providing 3L4F and fragments thereof disrupt the complex in the cell and result in the lack of co-localization of the molecules by immunohistochemistry or by immunoprecipitation studies. 5-HT2CR and PTEN can be co-immunoprecipitated from brain tissue samples. Additional studies using the split luciferase assay also detect direct coupling of 5-HT2CR with PTEN.
Functional analysis of the complex was investigated using Cai^++ release in 5-HT2CR-CHO cells. […] The studies have shown that the 3L4F peptide enhances Cai^++ release via a 5-HT2CR specific mechanism acting down stream ligand binding.
FIG. 15 compares the efficacy of derivatives 210 and A1 in terms of % 1 nM 5-HT induced Cai^++ release in 5-HT2CR-CHO cells. FIG. 16 compares the efficacy of derivatives 210 and A2 in terms of % 1 nM 5-HT induced Cai^++ Release in 5-HT2CR-CHO cells. FIG. 17 compares the efficacy of derivatives 210 and A3 in terms of % 1 nM 5-HT induced Cai^++ release in 5-HT2CR-CHO cells. FIG. 18 compares the efficacy of derivatives 210 and A4 in terms of % 1 nM 5-HT induced Cai^++ release in 5-HT2CR-CHO cells. FIG. 19 compares the efficacy of derivatives 210 and A5 in terms of % 1 nM 5-HT induced Cai^++ release in 5-HT2CR-CHO cells. FIG. 20 compares the efficacy of derivatives 210 and A6 in terms of % 1 nM 5-HT induced Cai^++ release in 5-HT2CR-CHO cells. FIG. 21 compares the efficacy of derivatives 210 and A8 in terms of % 1 nM 5-HT induced […] release in 5-HT2CR-CHO cells.

In a further experiment the test system is 5-HT2CR:PTEN complex. As to the kind of experiment: in situ localization (immunohistochemistry / immunoprecipitation) of 5-HT2CR:PTEN association in cells. In kind it is cell-based. The settings on record: for disrupting activity on 5-HT2CR:PTEN association: summary statement, assay not specified.
Text: as §1
Peptides described herein enhance 5-HT2CR signaling and peptide disruption of the serotonin (5-HT) 5-HT2CR interaction with protein phosphatase and tensin (PTEN). This interaction is functionally important to the 5-HT2CR signalosome.

The next experiment concerns the target T1, 5-HT2AR (Homo sapiens, UniProt P28223).
T1 construct: expressed in transfected cells; host or cells: CHO
Put plainly: Cai++ release in 5-HT2AR-CHO cells. In kind it is cell-based.

A further experiment relates to 5-HT2CR:PTEN interaction. Put plainly: split luciferase assay of direct 5-HT2CR:PTEN interaction in live cells. In kind it is cell-based. The text has this:
In addition split luciferase assays were used to detect direct coupling of 5-HT2CR with PTEN.

Entries after “also recorded” stand apart in the source; their conditions may differ.

T1 sequence (P28223 whole entry): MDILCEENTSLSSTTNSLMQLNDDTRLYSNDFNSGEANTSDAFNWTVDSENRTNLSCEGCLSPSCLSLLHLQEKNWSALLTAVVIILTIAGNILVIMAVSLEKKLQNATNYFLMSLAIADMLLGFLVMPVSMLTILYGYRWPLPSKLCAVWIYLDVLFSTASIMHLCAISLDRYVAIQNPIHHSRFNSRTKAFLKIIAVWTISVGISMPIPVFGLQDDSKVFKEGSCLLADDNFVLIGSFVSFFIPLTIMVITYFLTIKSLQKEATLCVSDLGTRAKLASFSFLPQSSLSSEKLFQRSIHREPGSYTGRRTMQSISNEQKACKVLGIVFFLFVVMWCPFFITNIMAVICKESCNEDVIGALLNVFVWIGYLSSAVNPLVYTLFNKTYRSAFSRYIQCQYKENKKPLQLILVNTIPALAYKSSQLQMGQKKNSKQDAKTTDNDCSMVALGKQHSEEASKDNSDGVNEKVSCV

Regarding `c1cc2c3c(c1)[C@H]1CCC[C@H]1N3CCNC2` [WAY163909], the “impulsive action (premature responses), agent alone” value in the experiment on rats is reported as “neither of which have effects on their own”.

In the case of PNQDQNAR [derivative 210], in the experiment with 5-HT2CR, the “5-HT (1 nM) induced Cai++ release” value is recorded as “retain 3L4F activity; also recorded: increase”. The “disrupting activity on 5-HT2CR:PTEN association” value (“disrupting activity” for short) with 5-HT2CR:PTEN complex is listed as “active fragment”.

Consider PNQDQNARRRKKKERR [3L4F], for which the “5-HT (1 nM) induced Cai++ release” value in the experiment on 5-HT2CR is listed as “increases”. Moreover, in the experiment on 5-HT2CR (selective orthosteric 5-HT2CR agonist WAY163909), the “WAY163909 induced Cai++ release” value is on record as “potentiates”. The “3L4F-enhanced 5-HT induced Cai++ release, effect of 5-HT2CR antagonist” value with 5-HT2CR (with 5-HT2CR antagonist) is recorded as “inhibits”. Besides, in the experiment with 5-HT2AR, the “5-HT induced Cai++ release” value was “does not alter”. In addition, the “association of 5-HT2CR and PTEN” value in the experiment with 5-HT2CR:PTEN complex (quantitation of in situ localization studies) was “disrupts the association”. The “disrupting activity” value in the experiment with 5-HT2CR:PTEN complex is reported as “disrupter”. Moreover, the “direct 5-HT2CR:PTEN interaction” value is listed as “disrupts” in the experiment with 5-HT2CR:PTEN interaction (NLuc fused to 3rd intracellular loop of 5-HT2CR, CLuc fused to PTEN) and “disrupts” in the experiment with 5-HT2CR:PTEN interaction (NLuc fused to full length 5-HT2CR).

As to QNARRRKK [derivative 212], in the experiment with 5-HT2CR, the “5-HT (1 nM) induced Cai++ release” value is “less efficacious than 3L4 F”. Also, the “disrupting activity” value in the experiment on 5-HT2CR:PTEN complex was “less disrupting activity than the 210 fragment”.

As to RRKKKERR [derivative 214], the “5-HT (1 nM) induced Cai++ release” value with 5-HT2CR is listed as “less efficacious than 3L4 F”. For the same compound, the “disrupting activity” value with 5-HT2CR:PTEN complex is “less disrupting activity than the 210 fragment”.

For the compound “V27-R45: 5-HT2CR N-terminus peptide fragment V27-R45 (VSPVAAIVTDIFNTSDGGR) [reference compound]”, in the experiment with 5-HT2CR, the “5-HT (1 nM) induced Cai++ release” value was “inactive”.

The values are drawn from US9611292B2, “Peptide inhibitors of serotonin 5-HT2c receptors:PTEN interaction” (THE BOARD OF REGENTS OF THE UNIVERSITY OF TEXAS SYSTEM, priority 2011, dated 2017).
